# Measured values taken from patent US20100130476A1, “COMPOUNDS THAT INDUCE PANCREATIC BETA-CELL EXPANSION” (The Scripps Research Institute, priority 2008, published 2010).
# Entries after “also recorded” stand apart in the source; their conditions may differ.
# Experiments:
# [1] = target: 65 kinases; test: Kinase profiling; type: biochemical; conditions: 5 μM; 65 kinases profiled
# [2] = system: β-catenin; test: Nuclear β-catenin translocation in HEK293 cells; type: cell-based; conditions: 10 μM, versus DMSO, listed as 1a
# Experimental: (§1) (A) Chemical structures of 5-thiophene pyrimidines. […] Relative luminescence unit (RLU) was measured by CellTiter-Glo assay after 7-day incubation of growth-arrested R7T1 β cells with 1a, which was added at day 0 and refreshed at day 4; experiments were performed in quadruplicate. All data in this paper are presented as mean±SD, unless otherwise specified. (C) Dose-dependent effects of 1a on the activation of Super (8×) TOPFlash reporter. HEK293 cells transfected with Super (8×) TOPFlash reporter were treated with 1a at the indicated concentrations 24 h after transfection. Luciferase activity was measured 48 h after compound treatment. (D and E) The proliferative effect of 1a on rat primary β cells. (D) After incubation for 72 h with 2 μM 1a, replicating β cells were identified by double-immunofluorescence staining by using anti-C-peptide antibody to mark β cells (green) and antibody against Ki-67, a proliferation marker (red). Nuclear DNA was stained with DAPI (blue). (Scale bar, 10 μm.) (E) The percentage of Ki-67-positive cells of all C-peptide-positive cells, which corresponds to the fraction of replicating β cells. The number of proliferating primary β cells increased after incubation for 72 h in the presence of 2 μM 1a compared with DMSO control: 1a at 2 μM increases the replicating β cells ≈2-fold. […] CellTiter-Glo activity was measured 7 days after compound treatment.
# [3] = system: HIT-T15 β cells; test: HIT-T15 β-cell proliferation (BrdU incorporation assay); type: cell-based, Hamster
# Experimental: (§2) R7T1 β-cells are expanded in growth medium (DMEM with 15% horse serum and 2.5% FBS) in the presence of 10 μg/ml doxycycline. (3TC-tet cells are expanded in growth medium (DMEM with 15% horse serum and 2.5% FBS) in the absence of 10 μg/ml doxycycline. Hamster HIT-T15 β-cells are grown in F12 medium with 15% horse serum and 2.5% FBS. MIN6 cells are cultured in DMEM with 15% FBS. HEK293 cells are grown according to instructions from ATCC (http://www.atcc.org/).
# [4] = system: Wnt reporter whose β-catenin/TCF binding sites are mutated; test: Mutated Wnt reporter; type: cell-based; conditions: data not shown
# [5] = system: Super (8×) TOPFlash reporter; test: Super (8×) TOPFlash Wnt reporter in HEK293 cells; type: cell-based
# Experimental: as §1, with “≈2-fold. (F) Compound 1a stimulates the translocation of β-catenin into the nucleus. Nuclear β-catenin accumulation (green arrows) was increased in 10 μM 1a-treated HEK293 cells; in DMSO-treated control cells, β-catenin staining is weak and appears to concentrate at the cell surface.” for “≈2-fold.”
# [6] = target: GSK3-β (Homo sapiens, UniProt P49841); test: GSK3-β inhibition; type: biochemical; conditions: preliminary investigation
# [7] = system: rat primary β cells; test: Primary β-cell proliferation assay, rat (C-peptide/Ki-67 double staining); type: cell-based; conditions: for increase in replicating primary rat β cells (Ki-67/C-peptide): 72 h, compared with DMSO; for increase in rat C-peptide/Ki-67 double positive β-cells: 72 hours (3 days), concentration not given
# Experimental: (§3) Islets are isolated by the standard Liberase digestion method from the pancreata of adult Sprague-Dawley rats (200-250 g) (Liberase III; Roche Applied Science) and cultured in RPMI medium with 10% FBS. Briefly, 6 ml of ice-cold Liberase solution (Roche Applied Science) is injected into the pancreas via the common bile duct. After dissection, the pancreas is incubated for 35 minutes at 37° C. and then further dissociated by repeated pipetting using a 10-ml pipette. Islets are purified by Histopaque-1.077 (Sigma) density gradient centrifugation and are manually picked using a stereomicroscope. […] Human islets are obtained through the Juvenile Diabetes Research Foundation Islet Distribution Program by Islet Cell Resource Center in Minnesota, USA. The purity and viability of human islets are reported to be 30-70% and 50-70%, respectively. Human islets are cultured in CMRL medium containing 10% FBS.
# (§4) Islets or single suspension cells are fixed with 4% formalin solution (Sigma) and stained by standard immuno-fluorescence techniques for C-peptide (anti-human C-peptide antibody from Raybiotech, Inc., and anti-rat C-peptide antibody from Linco, Inc.) and Ki-67 (anti-Ki-67 antibody from Abcam), a marker of proliferating cells. Nuclear DNA is stained with DAPI (Molecular Probes). At least 30,000 C-peptide positive cells are counted in each experiment, performed in triplicate. The images are taken on a Nikon Eclipse TE300 microscope with 200× magnification. Proliferating C-peptide/Ki-67 double positive β-cells are counted manually.
# [8] = system: growth-arrested R7T1 β cells; test: R7T1 β-cell proliferation, CellTiter Glo assay (high-throughput screen and follow-up); type: cell-based, mouse; conditions: for expansion of the pancreatic β-cell population: high-throughput screen, CellTiter Glo at Day 8, screen concentration 1.25 μM
# Experimental: as §2
# R7T1 β-cells are expanded in large quantities in growth medium in the presence of 10 μg/ml doxycycline and then are growth arrested by removal of doxycycline for one week. For the primary screen, growth-arrested cells are plated onto 384- or 1536-well plates in growth medium without doxycycline at a density of 4000 cells/well in 384-well plate or 1000 cells/well in 1536-well plate in an automated high-throughput screening platform (designated as Day 0). […] For data analysis, the median of a plate is calculated and the activity of each well is the signal/median of the plate. A signal in any well over 1.5 of the median is regarded as a primary hit. For the reconfirmation screen, growth-arrested R7T1 cells are plated onto 384-well plates and screened against all primary hits in quadruplicate. To eliminate tetracycline mimetics among all reconfirmed primary hits, βTC-tet cells are plated onto 384-well plates at a density of 2000 cells/well in growth medium in the presence of 10 μg/ml doxycycline, and 1.25 μM compound is added after overnight incubation and refreshed 4 days later. The effects on β-cell replication are then determined at Day 8 using the CellTiter Glo assay system. Any compound that increases the readings more than 1.5 fold is regarded as a hit.
# SV40 T antigen (TAg) oncoprotein under the control of the Tet-On system was used to immortalize mouse β cells so that these engineered β cells proliferate when TAg is induced in the presence of tetracycline (Tet), but undergo growth arrest upon withdrawal of Tet (see, Efrat S, et al., Proc. Natl. Acad. Sci. USA 92:3576-3580 (1995); Fleischer N, et al, Diabetes 47:1419-1425 (1998); and Milo-Landesman D, et al., Cell Transplant. 10:645-650 (2001)). Although not a true mimic of in vivo quiescent β cells, this system should allow us to identify small molecules that are able to induce reentry into cell cycle and proliferation of growth-arrested cells. Indeed, these engineered cells express high levels of β-cell signature markers, including insulin 1, insulin 2, and Pdx1, and are able to secrete insulin and restore and maintain euglycemia in STZ-treated diabetic mice when induced to growth arrest and transplanted (see, Efrat S, et al., supra; and Milo-Landesman D, et al., supra). A total of ≈850,000 compounds were screened with an automated high-throughput screening platform for their ability to induce the proliferation of growth-arrested β cells in either a 384- or 1,536-well plate format. In the primary screen, proliferation was assayed by using a luminescent assay measuring intracellular ATP content, which is directly proportional to viable cell number (see, Materials and Methods). To rule out any possible Tet mimetics that induce the proliferation of β cells through the induction of SV40 TAg expression, the Tet-Off immortalized β-cell line βTC-Tet was used for a counterscreen.
# [9] = system: MIN6 cells; test: MIN6 β-cell proliferation (BrdU incorporation assay); type: cell-based
# Experimental: as §2
# [10] = system: Ras; test: Ras activation analysis (GST-Raf1 RBD pull-down); type: cell-based, mouse; conditions: growth-arrested R7T1 β cells; for Ras-GTP level / Ras signaling (in words): 0.5 μM
# Experimental: Ras-GTP levels are detected using the Active Ras Pull-Down and Detection Kit, following the manufacturer's instructions (Pierce). Briefly, growth-arrested R7T1 β-cells are treated with 0.5 μM of a compound of the invention for an indicated time. Cells are then washed twice with ice-cold phosphate-buffered saline (PBS) and lysed in Lysis/Binding/Wash Buffer containing protease inhibitor cocktail [Roche]. Lysates (500 μg) are clarified by centrifugation and supernatants are incubated with 80 μg of GST-Raf1-RBD fusion protein precoupled to glutathione-Sepharose beads. After incubation for 1 hour at 4° C., beads are washed three times in Lysis/Binding/Wash Buffer, resuspended in Laemmli buffer and boiled. Samples are analyzed by SDS-PAGE (4-20%) followed by transfer to nitrocellulose membrane and then are probed with anti-Ras antibody. Blots are developed using the enhanced ECL system.
# [11] = system: human primary β cells; test: Primary β-cell proliferation assay, human (C-peptide/Ki-67 double staining); type: cell-based
# Experimental: as §3, §4
# [12] = system: MIN6 cells; test: Calcium influx assay (fluo-3, FLIPR); type: cell-based; conditions: MIN6 β cells
# Experimental: Calcium Influx Assay.Measurement of intracellular Ca^2+ ([Ca^2+]i) was performed by using a fluorescence laser-imaging plate reader (FLIPR; Molecular Devices). Briefly, MIN6 cells cultured in 384-well plates were incubated for 1 h with 4 μM fluo-3/AM (Molecular Probes) and 0.04% pluronic acid in physiological Locke's buffer (154 mM NaCl, 5.6 mM KCl, 1.0 mM MgCl2, 2.3 mM CaCl2, 8.6 mM Hepes, 5.6 mM glucose, and 0.1 mM glycine [pH 7.4]). After incubation, MIN6 cells were washed with Locke's buffer by using an automated cell washer to remove extracellular dye. MIN6 cells were treated with compounds at the indicated concentrations. These cells were excited at 488 nm and Ca^2+-bound fluo-3 emission was recorded at 500-560 nm.
# [13] = system: growth-arrested R7T1 β cells; test: Microarray analysis of gene expression; type: cell-based, mouse
# Experimental: RNA extraction from R7T1 β-cells treated with compounds at the indicated time points is performed using RNeasy kits (Qiagen). The integrity and concentration of RNA is determined by microfluidic analysis on an Experion instrument (BioRad). Standard Affymetrix single amplification is performed using 5 μg total RNA. Standard Affymetrix protocols are used to process Affymetrix MOE430—2 microarrays (Affymetrix). All CEL file images are processed as a single group using gcRMA.
# GSK3-β, sequence (P49841 whole entry, species assumed): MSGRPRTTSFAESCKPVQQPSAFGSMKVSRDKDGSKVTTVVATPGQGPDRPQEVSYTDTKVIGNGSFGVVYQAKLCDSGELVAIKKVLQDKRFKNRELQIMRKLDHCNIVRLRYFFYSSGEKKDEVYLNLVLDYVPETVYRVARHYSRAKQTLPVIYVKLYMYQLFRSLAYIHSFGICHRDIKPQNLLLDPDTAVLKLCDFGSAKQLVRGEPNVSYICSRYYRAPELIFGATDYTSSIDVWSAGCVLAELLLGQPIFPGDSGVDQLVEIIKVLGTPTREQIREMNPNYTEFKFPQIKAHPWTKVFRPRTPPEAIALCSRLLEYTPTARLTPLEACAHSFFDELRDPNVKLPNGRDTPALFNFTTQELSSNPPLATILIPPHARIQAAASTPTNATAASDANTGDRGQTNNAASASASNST
smiles,measurement,setting,value
"CN1CCN(C(=O)c2ccc(Nc3nccc(-c4cccs4)n3)cc2Cl)CC1 [Example 1, (2-chloro-4-(4-(thiophen-2-yl)pyrimidin-2-ylamino)phenyl)(4-methylpiperazin-1-yl)methanone]",kinases profiled that were inhibited by >75%,[1],7 of 65
same,nuclear β-catenin accumulation,[2],Increased nuclear β-catenin accumulation
same,proliferation of HIT-T15 β cells (in words),[3],promote the proliferation
same,activity on mutated Wnt reporter,[4],no activity
same,activation of the Wnt reporter compared with DMSO,[5]; 10 μM,15 fold
same,EC50,"[5]; Homo sapiens, HEK293 cells, luciferase 48 h after compound treatment, read-out: EC50 of induction of Super (8×) TOPFlash reporter",~1.25 µM
same,IC50,[6],0.064 µM
same,increase in replicating primary rat β cells (Ki-67/C-peptide),[7]; 2 μM,≈ 2 fold
same,increase in rat C-peptide/Ki-67 double positive β-cells,[7],2 fold
same,EC50,"[8]; Mus musculus, 168 h, CellTiter-Glo after 7-day incubation, read-out: EC50 of replication of growth-arrested R7T1 β cells",~1.1 µM
same,expansion of the pancreatic β-cell population,[8],2.5 fold
same,proliferation of MIN6 β cells (in words),[9],promote the proliferation
"COC(=O)C1=C(C)NC(C)=C([N+](=O)[O-])[C@H]1c1ccccc1C(F)(F)F [Example 2a, (S)-methyl 2,6-dimethyl-5-nitro-4-(2-(trifluoromethyl)phenyl)-1,4-dihydropyridine-3-carboxylate]",proliferation of HIT-T15 β cells (in words),[3],increased proliferation
same,time of peak Ras-GTP level,[10],10 min
same,Ras-GTP level / Ras signaling (in words),[10],elevated; also recorded: Activation
same,Ras-GTP level / Ras signaling (in words),"[10]; listed as (S)-methyl 2,6-dimethyl-5-nitro-4-(2-(trifluoromethyl)phenyl)-1,4-dihydropyridin",activates the Ras pathway
same,increase in proliferating human primary β cells,"[11]; 1 μM, 72 h, compared with DMSO",≈ 1.5 fold
same,increase in human C-peptide/Ki-67 double positive β-cells,"[11]; 72 hours, concentration not given",1.5 fold
same,number of proliferating human primary β cells (in words),"[11]; human islets, 3 days, 2a 1 μM, Ex-4 5 nM where combined",increase the number of proliferating human β cells
same,increase in replicating primary rat β cells (Ki-67/C-peptide),[7]; 1 μM,≈ 2.5 fold
same,increase in rat C-peptide/Ki-67 double positive β-cells,[7],2.5 fold
same,duration of R7T1 proliferation in the presence of the compound,[8],up to 3 weeks
same,time to stop of proliferation after removal of the compound,[8],≤ 1 week
same,effect on growth-arrested R7T1 β cells (in words),"[8]; CellTiter-Glo, 7 days",β-cell proliferation
same,increase in transient intracellular calcium levels,"[12]; fluo-3, FLIPR",10 fold
same,calcium influx (in words),"[12]; fluo-3, FLIPR up to 5 min",stimulated
same,proliferation of MIN6 β cells (in words),[9],increased proliferation
same,expression of IRS2,[13]; 0.5 μM,1.7 fold
same,expression of Ccnd2 (cyclin D2),"[13]; 0.5 μM, 24 h",approximately 1.7 fold
same,"expression of RasGEFs (RasGRF1, RasGEF1b) (in words)",[13]; 2-6 h after treatment,transcriptionally up-regulated; also recorded: activated
same,expression of Ccnd2 (in words),"[13]; 2a 1 μM, Ex-4 5 nM where combined, 2 h to 24 h",increased; also recorded: up-regulated
same,"expression of β-cell signature markers insulin 1, insulin 2, Pdx1","[13]; pretreatment versus posttreatment, data not shown",unchanged
same,"expression of immediate-early genes (Fos, Jun, Egr, Ier families)","[13]; within 30 min, 0.5 μM or 1 μM 2a, Ex-4 5 nM where combined",large increase; also recorded: highly induced
"COc1ccc(CCNc2nc(N3CCCC3CO)nc3ccccc23)cc1 (stereo not drawn) [Example 9, (1-(4-(4-methoxyphenethylamino)quinazolin-2-yl)pyrrolidin-2-yl)methanol]",expansion of the pancreatic β-cell population,[8],3 fold
CC1=C(CC(=O)O)c2cc(F)ccc2/C1=C\c1ccc([S+](C)[O-])cc1 (stereo not drawn) [Sulindac],effect on 1a-stimulated Wnt activation,[5],abolished
same,effect on 1a-stimulated β-cell proliferation,"[8]; 60 μM Sulindac with 10 μM 1a, CellTiter-Glo after 7 days",abolished
